Patent publication US8735375B2, “Therapeutic compositions” (Leo Laboratories Limited, priority 2005, dated 2014)

Experiment: Stability study of I3A in solvents/excipients at room temperature (HPLC ratio of isoform 'b' to 'a' and 'c')
Format: physicochemical
Procedure: A stability study of I3A in the following solvent/excipients/excipient combinations was performed over 14 days (except where otherwise stated) at room temperature:
A 0.5 mg/ml stock solution of I3A in acetonitrile was prepared. Aliquots of 1.0 ml were transferred to individual glass sample vials by a burette; the solutions were dried by air jet and then 1.0 g of the respective solvent/excipient/excipient combination was added to the vials. On Day 0, Day 5 and Day 14, aliquots of the stability samples were removed for HPLC analysis using the chromatographic conditions described under “Stability in DMSO”, below. Stability was expressed as the ratio of peak ‘b’ to peak ‘a’ (and peak ‘c’ if present), with a high ratio indicating stability in a particular excipient.
The chromatographic conditions employed for the excipients stability study were as follows:
It is assumed that for an excipient in which I3A is not stable, other like excipients will not be suitable.

[1] = I3A in Mineral oil, room temperature, 14 days

Compound: C/C=C(/C)C(=O)O[C@H]1C(C)=C[C@]23C(=O)[C@H](C=C(CO)[C@@H](O)[C@]12O)[C@H]1[C@@H](C[C@H]3C)C1(C)C [Formulation I3A, ingenol-3-angelate]
- Stable? (I3A in 2-Hydroxypropyl-β-cyclodextrin (Cavasol)/PO4 pH 4.5, room temperature, 14 days): √
- Stable? (I3A in Acetone, room temperature, 14 days): stable and √
- Stable? (I3A in Acetonitrile, room temperature, 14 days): stable and √
- Stable? (I3A in Ammonium buffer pH 4.5, room temperature): stable and √
- Comments (I3A in Captisol/H2O, room temperature, 7 days study (comment continues: present)): Isoforms ‘a’ and ‘c’
- Comments (I3A in Cavasol/H2O, room temperature, 14 days): Large peak for isoform ‘c’
- Comments (I3A in Cavasol/PO4 pH 4.5, room temperature, 14 days): Some precipitation of I3A
- Stable? (I3A in DMSO, room temperature, 10 days study): stable and √
- Comments (I3A in Methanol, room temperature, 14 days): Isoform ‘a’ forms
- Comments (I3A in Methanol/water (70/30), room temperature, 14 days): Isoform ‘a’ then ‘c’ form
- Stable? (I3A in Miglyol 810, room temperature, 14 days): √
- Comments [1]: Precipitation of I3A
- Stable? [1]: √
- Comments (I3A in Oleic acid, room temperature, 14 days (isoform 'a' present, shoulder on 'b', 'c' forming)): chromatogram. isoform ‘a’
- Stable? (I3A in Phosphate buffer pH 4.5, room temperature, 14 days): stable and √
- Comments (I3A in Phosphate buffer pH 5.5, room temperature, 14 days): Isoform ‘a’ forms
- Comments (I3A in Phosphate buffer pH 6.5, room temperature, 14 days): Isoform ‘a’ then ‘c’ form
- Stable? (I3A in Polyethylene glycol, room temperature, 14 days): √
- Comments (I3A in Propylene glycol, room temperature, 14 days (comment continues: isoforms)): Formation of ‘a’ and ‘c’
- Comments (I3A in Sodium hyaluronate/H2O, room temperature, 2 days study): Isoform ‘a’ present
- Stable? (I3A in Sodium hyaluronate/PO4 pH 4.5, room temperature, 2 days study): √
- Stable? (I3A in Tween 80/Span 80/H2O, room temperature, 14 days): √
- Stable? (I3A in Tween 80/Span 80/PO4 pH 4.5, room temperature, 14 days): √
- Comments (I3A in Water, room temperature, 14 days): Isoform ‘a’ then ‘c’ form
- Stable? (I3A in β-cyclodextrin sulphobutyl ether (Captisol)/PO4 pH 4.5, room temperature, 7 days study): √
